Eight compounds from patent US11685719B2, “Pyridinone MK2 inhibitors and uses thereof” (Xinthera, Inc., priority 2021, dated 2023) can be followed below.

The target of one assay is p38a/MK2 (Homo sapiens (Human), UniProt P49137+Q16539). The experiment in a line: biochemical. To be noted: 10-point 1:3 dilution, top dose 1 μM; 10 μM ATP, 2 h incubation; read-out: p38a/MK2 (1 μM) Enzyme pIC50 (converted). Put shortly:
(§1)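 Recombinant N-terminal GST-tagged MK2 (F46-H400) or PRAK (M1-Q471), expressed in E. coli, were activated by p38. Activity read as phosphorylation of FITC-conjugated HSP27 peptide. IC50 taken as half-maximal inhibition of activation from 10-point 1:3 dilutions, top dose 1 or 10 μM for MK2 and 300 μM for PRAK.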

Another assay has as its target p38a/PRAK (Homo sapiens (Human), UniProt Q16539). As to the kind of experiment: biochemical. Particulars: 10-point 1:3 dilution, top dose 300 μM; 10 μM ATP, 2 h incubation; read-out: p38a/PRAK Enzyme pIC50 (converted). An outline of the steps:
as §1

Sequence of p38a/PRAK (Q16539 whole entry): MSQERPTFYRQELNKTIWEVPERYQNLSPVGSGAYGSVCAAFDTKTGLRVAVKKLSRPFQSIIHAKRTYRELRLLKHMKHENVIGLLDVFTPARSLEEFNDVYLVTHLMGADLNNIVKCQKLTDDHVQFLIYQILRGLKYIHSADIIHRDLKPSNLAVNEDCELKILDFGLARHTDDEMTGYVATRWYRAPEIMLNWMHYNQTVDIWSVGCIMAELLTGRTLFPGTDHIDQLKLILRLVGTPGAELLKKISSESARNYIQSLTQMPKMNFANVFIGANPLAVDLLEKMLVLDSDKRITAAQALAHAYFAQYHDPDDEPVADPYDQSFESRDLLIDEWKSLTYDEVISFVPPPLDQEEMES
Sequence of p38a/MK2 (Q16539 whole entry): as above
Sequence of p38a/MK2 (P49137 46-400): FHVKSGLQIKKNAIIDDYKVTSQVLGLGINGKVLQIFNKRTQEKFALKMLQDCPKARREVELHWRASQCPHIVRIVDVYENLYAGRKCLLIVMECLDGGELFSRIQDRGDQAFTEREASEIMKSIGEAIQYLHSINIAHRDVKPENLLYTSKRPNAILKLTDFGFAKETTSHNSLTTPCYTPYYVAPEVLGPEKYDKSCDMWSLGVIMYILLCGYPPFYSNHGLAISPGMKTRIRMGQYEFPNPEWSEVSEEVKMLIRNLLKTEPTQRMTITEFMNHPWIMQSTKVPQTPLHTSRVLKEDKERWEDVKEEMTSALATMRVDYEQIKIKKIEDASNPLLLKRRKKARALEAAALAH

As to `[2H]C([2H])(Oc1cc(C)n(-c2cc(-n3cccc(C(C)(C)O)c3=O)ncc2C)c(=O)c1Cl)c1ncc(Cl)cc1F` (single isomer, unassigned) [Example 21B, rel-3-chloro-4-[(5-chloro-3-fluoropyridin-2-yl)(2H2)methoxy]-2′-[3-(2-hydroxypropan-2-yl)-2-oxopyridin-1-yl]-5′,6-dimethyl-[1,4′-bipyridin]-2-one], the values for the IC50 on p38a/MK2 and on p38a/PRAK were above 1000 nM and above 316000 nM, respectively.

`[2H]C([2H])(Oc1cc(C)n(-c2cc(-n3ccnc(C(C)(C)O)c3=O)ncc2C)c(=O)c1Cl)c1ncc(F)cc1Cl` (single isomer, unassigned) [Example 22A, rel-3-chloro-4-((3-chloro-5-fluoropyridin-2-yl)methoxy-d2)-2′-(3-(2-hydroxypropan-2-yl)-2-oxopyrazin-1(2H)-yl)-5′,6-dimethyl-2H-[1,4′-bipyridin]-2-one]: the IC50 at p38a/MK2 was 2 nM; on p38a/PRAK it was 3980 nM.

As to `[2H]C([2H])(Oc1cc(C)n(-c2cc(-n3ccnc(C(C)(C)O)c3=O)ncc2C)c(=O)c1Cl)c1ncc(F)cc1Cl` (single isomer, unassigned) [Example 22B, rel-3-chloro-4-((3-chloro-5-fluoropyridin-2-yl)methoxy-d2)-2′-(3-(2-hydroxypropan-2-yl)-2-oxopyrazin-1(2H)-yl)-5′,6-dimethyl-2H-[1,4′-bipyridin]-2-one], the IC50 is above 100 nM on p38a/MK2 and above 316000 nM at p38a/PRAK.

Turning to `[2H]C([2H])(Oc1cc(C)n(-c2cc(-n3cccc(C(C)(C)O)c3=O)ncc2C)c(=O)c1Cl)c1ncc(F)cc1Cl` (single isomer, unassigned) [Example 23A, rel-4′-{3-chloro-4-[(3-chloro-5-fluoropyridin-2-yl)(2H2)methoxy]-6-methyl-2-oxopyridin-1-yl}-3-(2-hydroxypropan-2-yl)-5′-methyl-[1,2′-bipyridin]-2-one], the IC50 at p38a/MK2 was 2.51 nM; at p38a/PRAK, 6310 nM.

`[2H]C([2H])(Oc1cc(C)n(-c2cc(-n3cccc(C(C)(C)O)c3=O)ncc2C)c(=O)c1Cl)c1ncc(F)cc1Cl` (single isomer, unassigned) [Example 23B, rel-4′-{3-chloro-4-[(3-chloro-5-fluoropyridin-2-yl)(2H2)methoxy]-6-methyl-2-oxopyridin-1-yl}-3-(2-hydroxypropan-2-yl)-5′-methyl-[1,2′-bipyridin]-2-one]: the IC50 is above 100 nM at p38a/MK2 and above 316000 nM on p38a/PRAK.

For `Cc1cnc(-n2ccnc(C(C)(C)O)c2=O)cc1-n1c(C)cc(OCc2ncc(F)cc2Cl)c(Cl)c1=O` (single isomer, unassigned) [Example 24A, rel-3-chloro-4-[(3-chloro-5-fluoropyridin-2-yl)methoxy]-2′-[3-(2-hydroxypropan-2-yl)-2-oxopyrazin-1-yl]-5′,6-dimethyl-[1,4′-bipyridin]-2-one], the IC50 at p38a/MK2 was above 1000 nM; at p38a/PRAK it was above 316000 nM.

Consider `Cc1cnc(-n2ccnc(C(C)(C)O)c2=O)cc1-n1c(C)cc(OCc2ncc(F)cc2Cl)c(Cl)c1=O` (single isomer, unassigned) [Example 24B, rel-3-chloro-4-[(3-chloro-5-fluoropyridin-2-yl)methoxy]-2′-[3-(2-hydroxypropan-2-yl)-2-oxopyrazin-1-yl]-5′,6-dimethyl-[1,4′-bipyridin]-2-one], for which the IC50 was 2.51 nM on p38a/MK2 and 5010 nM at p38a/PRAK.

For the compound `Cc1cnc(-n2cccc(C(C)(C)O)c2=O)cc1-n1c(C)nc(OCc2ncc(F)cc2F)c(Cl)c1=O` (single isomer, unassigned) [Example 25A, rel-4′-{5-chloro-4-[(3,5-difluoropyridin-2-yl)methoxy]-2-methyl-6-oxopyrimidin-1-yl}-3-(2-hydroxypropan-2-yl)-5′-methyl-[1,2′-bipyridin]-2-one], the values for the IC50 on p38a/MK2 and at p38a/PRAK were 3.98 nM and 6310 nM, respectively.
